In patent US11566007B2, “Ras inhibitors” (Revolution Medicines, Inc., priority 2019, dated 2023):
Where “and” joins values, the source holds several entries; their conditions need not be identical. Identical values can stand only once. Like-named read-outs stand apart in the source and are kept apart here.

How the values were obtained:
[1] = test system: NCI-H358 cells (K-Ras G12C); assay: Potency assay: pERK in NCI-H358 cells; format: cell-based, human; conditions: Homo sapiens, NCI-H358; H358 KRAS G12C; read-out: pERK EC50
Method in brief: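 4 h cpd, 37 °C; 10-pt 3-fold series, 10 mM DMSO top stock, duplicates. Readout pERK: AlphaLISA SureFire Ultra or In-Cell Western (IR-800CW secondary, DRAQ5 DNA stain). IC50, 4-PL fit vs log conc.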

KRAS G12S = KRAS G12S (Homo sapiens (Human), UniProt P01116+P62937, G12S); assay: Ras-Raf (BRAF RBD) disruption / FRET / MOA assay, KRAS G12S; format: biochemical; conditions: Ras-Raf disruption/FRET/MOA assay; class symbols; read-out: KRAS G12S FRET data IC50
Method in brief: (§1)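 Compound-driven ternary complex of nucleotide-loaded Ras with cyclophilin A, disrupting BRAF RBD binding. 10-point 3-fold dilution from 30 μM final, 3 h at 25° C, then anti-His Eu-W1024 (10 nM) and anti-GST allophycocyanin (50 nM) for 1.5 h. IC50 from TR-FRET ratio decrease versus DMSO.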

KRAS G13D = KRAS G13D (Homo sapiens (Human), UniProt P01116+P62937, G13D); assay: Ras-Raf (BRAF RBD) disruption / FRET / MOA assay, KRAS G13D; format: biochemical; conditions: read-out: IC50* KRAS G13D FRET data
Method in brief: as §1

KRAS G12D = KRAS G12D (Homo sapiens (Human), UniProt P01116+P62937, G12D); assay: Ras-Raf (BRAF RBD) disruption / FRET / MOA assay, KRAS G12D; format: biochemical; conditions: Ras-Raf disruption/FRET/MOA assay; class symbols; read-out: KRAS G12D FRET data IC50
Method in brief: as §1

KRAS WT = KRAS WT (Homo sapiens (Human), UniProt P01116+P62937); assay: Ras-Raf (BRAF RBD) disruption / FRET / MOA assay, KRAS WT; format: biochemical; conditions: read-out: IC50* KRAS WT FRET data
Method in brief: as §1

K-Ras G13C = K-Ras G13C (Homo sapiens (Human), UniProt P01116+P62937, G13C); assay: Ras-Raf (BRAF RBD) disruption / FRET / MOA assay, KRAS G13C; format: biochemical; conditions: KRAS G13C; Ras-Raf disruption/FRET/MOA assay; read-out: IC50* KRAS G13C FRET data
Method in brief: as §1

NCI-H358 (K-Ras G12C) = assay: CellTiter-Glo cell viability assay, NCI-H358; format: cell-based, human; conditions: NCI-H358, 5-day treatment, class symbols, read-out: Additional H358 Cell Viability assay data (K-Ras G12C, IC50)
Method in brief: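 Viability of K-Ras mutant lines is measured by ATP luminescence after five days of compound treatment. Percent of DMSO control is calculated and dose-response data are fitted with a four-parameter logistic equation.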

K-Ras G12C = K-Ras G12C (Homo sapiens (Human), UniProt P01116+P62937, G12C); assay: Ras-Raf (BRAF RBD) disruption / FRET / MOA assay, KRAS G12C; format: biochemical; conditions: KRAS G12C; Ras-Raf disruption/FRET/MOA assay; read-out: IC50* KRAS G12C FRET data
Method in brief: as §1

KRAS G12V = KRAS G12V (Homo sapiens (Human), UniProt P01116+P62937, G12V); assay: Ras-Raf (BRAF RBD) disruption / FRET / MOA assay, KRAS G12V; format: biochemical; conditions: read-out: IC50* KRAS G12V FRET data
Method in brief: as §1

NRAS G12C = NRAS G12C (Homo sapiens (Human), UniProt P01111+P62937, G12C); assay: Ras-Raf (BRAF RBD) disruption / FRET / MOA assay, NRAS G12C; format: biochemical; conditions: read-out: IC50* NRAS G12C FRET data
Method in brief: as §1

Chain of KRAS WT (P01116-2 other isoform, or with tags, fused parts or gaps): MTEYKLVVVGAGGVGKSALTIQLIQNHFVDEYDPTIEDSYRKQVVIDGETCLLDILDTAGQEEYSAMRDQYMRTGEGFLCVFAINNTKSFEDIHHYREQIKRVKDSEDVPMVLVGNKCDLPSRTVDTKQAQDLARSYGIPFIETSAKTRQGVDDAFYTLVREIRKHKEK
Chain of KRAS WT (P62937 whole entry): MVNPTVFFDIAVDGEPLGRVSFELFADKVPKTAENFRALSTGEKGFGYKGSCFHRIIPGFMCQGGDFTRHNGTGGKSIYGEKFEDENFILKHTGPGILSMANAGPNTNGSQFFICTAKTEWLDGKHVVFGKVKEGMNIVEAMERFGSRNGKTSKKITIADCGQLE
Chain of K-Ras G12C (P01116-2 other isoform, or with tags, fused parts or gaps G12C): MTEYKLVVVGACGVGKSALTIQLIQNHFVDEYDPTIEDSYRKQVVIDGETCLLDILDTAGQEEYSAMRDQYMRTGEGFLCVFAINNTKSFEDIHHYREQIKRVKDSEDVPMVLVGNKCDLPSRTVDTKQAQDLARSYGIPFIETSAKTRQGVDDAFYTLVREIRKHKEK
Chain of K-Ras G12C (P62937 whole entry): as the sequence (P62937 whole entry) above
Chain of KRAS G13D (P01116-2 other isoform, or with tags, fused parts or gaps G13D): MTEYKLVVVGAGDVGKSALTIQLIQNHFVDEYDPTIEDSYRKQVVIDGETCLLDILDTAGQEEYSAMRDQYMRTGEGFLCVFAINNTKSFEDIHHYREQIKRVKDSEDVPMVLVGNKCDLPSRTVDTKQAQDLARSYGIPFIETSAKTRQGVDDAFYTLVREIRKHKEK
Chain of KRAS G13D (P62937 whole entry): as the sequence (P62937 whole entry) above
Chain of K-Ras G13C (P01116-2 other isoform, or with tags, fused parts or gaps G13C): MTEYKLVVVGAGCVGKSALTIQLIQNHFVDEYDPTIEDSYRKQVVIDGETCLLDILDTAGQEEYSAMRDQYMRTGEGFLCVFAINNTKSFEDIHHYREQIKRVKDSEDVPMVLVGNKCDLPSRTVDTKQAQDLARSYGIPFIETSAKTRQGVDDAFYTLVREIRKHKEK
Chain of K-Ras G13C (P62937 whole entry): as the sequence (P62937 whole entry) above
Chain of KRAS G12V (P01116-2 other isoform, or with tags, fused parts or gaps G12V): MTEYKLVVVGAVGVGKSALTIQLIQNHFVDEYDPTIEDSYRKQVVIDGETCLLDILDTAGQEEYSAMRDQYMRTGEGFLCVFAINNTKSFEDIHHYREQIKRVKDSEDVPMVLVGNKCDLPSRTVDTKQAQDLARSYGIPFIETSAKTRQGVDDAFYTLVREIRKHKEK
Chain of KRAS G12V (P62937 whole entry): as the sequence (P62937 whole entry) above
Chain of KRAS G12S (P01116-2 other isoform, or with tags, fused parts or gaps G12S): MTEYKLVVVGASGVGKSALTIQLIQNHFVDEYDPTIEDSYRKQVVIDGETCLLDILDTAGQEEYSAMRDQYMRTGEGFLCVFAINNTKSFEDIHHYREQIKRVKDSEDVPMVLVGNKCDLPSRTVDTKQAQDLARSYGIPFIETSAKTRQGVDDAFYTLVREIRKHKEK
Chain of KRAS G12S (P62937 whole entry): as the sequence (P62937 whole entry) above
Chain of KRAS G12D (P01116-2 other isoform, or with tags, fused parts or gaps G12D): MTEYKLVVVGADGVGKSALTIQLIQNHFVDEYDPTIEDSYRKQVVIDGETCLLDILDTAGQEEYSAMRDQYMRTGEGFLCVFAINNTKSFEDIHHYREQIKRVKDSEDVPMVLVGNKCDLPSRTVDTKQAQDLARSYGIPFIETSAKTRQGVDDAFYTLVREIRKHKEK
Chain of KRAS G12D (P62937 whole entry): as the sequence (P62937 whole entry) above
Chain of NRAS G12C (P01111 whole entry G12C): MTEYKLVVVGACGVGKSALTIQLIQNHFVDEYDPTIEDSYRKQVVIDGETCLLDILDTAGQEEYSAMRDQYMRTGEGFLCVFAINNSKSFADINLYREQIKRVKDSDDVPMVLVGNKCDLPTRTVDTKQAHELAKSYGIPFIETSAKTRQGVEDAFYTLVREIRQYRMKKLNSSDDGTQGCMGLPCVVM
Chain of NRAS G12C (P62937 whole entry): as the sequence (P62937 whole entry) above

IC50 (NCI-H358 (K-Ras G12C)) [µM] | Structure (SMILES) | EC50 [1] [µM] | IC50 (KRAS G12S) | IC50 (KRAS G13D) | IC50 (KRAS G12D) | IC50 (KRAS WT) | IC50 (K-Ras G13C) | IC50 (NCI-H358 (K-Ras G12C); Homo sapiens, NCI-H358, 120 h) [µM] | IC50 (K-Ras G12C) | IC50 (KRAS G12V) | IC50 (NRAS G12C)
 | C=CC(=O)N1CC[C@H](C(=O)N(C)[C@H](C(=O)N[C@H]2Cc3cccc(c3)-c3ccc4c(c3)c(c(-c3cccnc3[C@@H]3CCCO3)n4CC)CC(C)(C)COC(=O)[C@@H]3CCCN(N3)C2=O)C(C)C)C1 (atropisomer, axis not shown) [Example A512] | < 5 | 1 to 10 µM | > 10 µM | > 10 µM | 1 to 10 µM | 1 to 10 µM | 0.01 to 0.1 | 0.1 to 1 µM | 1 to 10 µM | 0.1 to 1 µM
 | C=CC(=O)NCCN(C)C(=O)N(C)[C@H](C(=O)N[C@H]1Cc2nc(cs2)-c2ccc3c(c2)c(c(-c2cccnc2[C@H](C)OC)n3CC)CC(C)(C)COC(=O)[C@@H]2CCCN(N2)C1=O)C(C)C (atropisomer, axis not shown) [Example A438] | < 5 | 0.1 to 1 µM | 0.1 to 1 µM | 1 to 10 µM | 0.1 to 1 µM | 0.01 to 0.1 µM | 0.01 to 0.1 | 0.01 to 0.1 µM | 0.1 to 1 µM | 0.01 to 0.1 µM
< 0.01 | CCn1c(-c2cncnc2[C@H](C)OC)c2c3cc(ccc31)-c1cc(O)cc(c1)C[C@H](NC(=O)[C@H](C(C)C)N(C)C(=O)[C@H]1CCN(C(=O)C#CCN3CCOCC3)C1)C(=O)N1CCC[C@H](N1)C(=O)OCC(C)(C)C2 (atropisomer, axis not shown) [Example A182] | < 5 | 0.1 to 1 µM and 1 to 10 µM | 0.1 to 1 µM and 1 to 10 µM | 1 to 10 µM and > 10 µM | 0.1 to 1 µM and 1 to 10 µM | 0.01 to 0.1 µM and 1 to 10 µM | 0.01 to 0.1 | 0.01 to 0.1 µM and < 0.01 µM | 0.1 to 1 µM and 1 to 10 µM | 0.01 to 0.1 µM and < 0.01 µM
 | C=CC(=O)N1CCC2(CCN([C@H](C(=O)N[C@H]3Cc4cc(O)cc(c4)-c4ccc5c(c4)c(c(-c4cccnc4[C@H](C)OC)n5CC)CC(C)(C)COC(=O)[C@@H]4CCCN(N4)C3=O)C(C)C)C2=O)C1 (stereo partly drawn) [Example A295] | < 5 | 0.01 to 0.1 µM | 0.1 to 1 µM | 0.1 to 1 µM | 0.01 to 0.1 µM | 0.01 to 0.1 µM | < 0.01 | 0.01 to 0.1 µM | 0.01 to 0.1 µM | 0.01 to 0.1 µM
 | C=CC(=O)N1CC[C@H](C(=O)N(C)[C@H](C(=O)N[C@H]2Cc3cc(O)cc(c3)-c3ccc4c(c3)c(c(-c3ccncc3CN(C)C)n4CC)CC(C)(C)COC(=O)[C@@H]3CCCN(N3)C2=O)C(C)C)C1 [Example A128] | < 5 | 0.1 to 1 µM | 0.1 to 1 µM | 1 to 10 µM | 0.1 to 1 µM | 0.1 to 1 µM | < 0.01 | 0.01 to 0.1 µM | 0.1 to 1 µM | 0.01 to 0.1 µM
 | C=CC(=O)N1CC2(C1)OCN([C@H](C(=O)N[C@H]1Cc3cccc(c3)-c3ccc4c(c3)c(c(-c3cccnc3[C@H](C)OC)n4CC)CC(C)(C)COC(=O)[C@@H]3CCCN(N3)C1=O)C(C)C)C2=O (atropisomer, axis not shown) [Example A452] | < 5 | 1 to 10 µM | 1 to 10 µM | > 10 µM | 0.1 to 1 µM | 0.01 to 0.1 µM | < 0.01 | 0.01 to 0.1 µM | 1 to 10 µM | 0.01 to 0.1 µM
 | C=CC(=O)N1CCC12CCN(C(=O)N(C)[C@H](C(=O)N[C@H]1Cc3nc(cs3)-c3ccc4c(c3)c(c(-c3cccnc3[C@H](C)OC)n4CC)CC(C)(C)COC(=O)[C@@H]3CCCN(N3)C1=O)C(C)C)CC2 (atropisomer, axis not shown) [Example A415] | < 5 | 0.1 to 1 µM | 0.1 to 1 µM | 1 to 10 µM | 0.1 to 1 µM | 0.1 to 1 µM | 0.01 to 0.1 | 0.1 to 1 µM | 0.1 to 1 µM | 0.1 to 1 µM
 | C=CC(=O)N1CC2CCC1CN2C(=O)N(C)[C@H](C(=O)N[C@H]1Cc2nc(cs2)-c2ccc3c(c2)c(c(-c2cccnc2[C@H](C)OC)n3CC)CC(C)(C)COC(=O)[C@@H]2CCCN(N2)C1=O)C(C)C [Example A420] | < 5 | 0.1 to 1 µM | 1 to 10 µM | 1 to 10 µM | 0.1 to 1 µM | 0.1 to 1 µM | 0.01 to 0.1 | 0.1 to 1 µM | 0.1 to 1 µM | 0.1 to 1 µM
